Measured values from patent US20260001928A1 (CORTERIA PHARMACEUTICALS, priority 2022, published 2026).
*1 amine or outer side, *2 acyl side, *3 side chain or, on linkers, in order; H or OH if unused. Where a SMILES comes first, the peptide text is derived from it. Side-chain parts run from the residue outwards. [ ]: non-standard residue; d: D form. The star is where a group is joined. C18 diacid = O=C(O)CCCCCCCCCCCCCCCCC(=O)*; γGlu = O=C(O)[C@H](CCC(=O)[*:2])N[*:1]; NMeI = CC[C@H](C)[C@H](NC)C(=O)O; Api = NC1(C(=O)O)CCNCC1; Pentanoyl = CCCCC(=O)*; AEEA = NCCOCCOCC(=O)O; Aib = CC(C)(N)C(=O)O

How the values were obtained:
[1] = target: T1, CFR1R receptor (Homo sapiens, UniProt P34998); assay: Activity at anti-target CFR1R receptor, cAMP assay in CRF1R-overexpression CHO-K1 cells; type: cell-based; details: 100% = Sauvagine at 100 nM; for EC50: cAMP
T1 construct: host or cells: CHO-K1 (clone 2)
T1 sequence (P34998 24-415): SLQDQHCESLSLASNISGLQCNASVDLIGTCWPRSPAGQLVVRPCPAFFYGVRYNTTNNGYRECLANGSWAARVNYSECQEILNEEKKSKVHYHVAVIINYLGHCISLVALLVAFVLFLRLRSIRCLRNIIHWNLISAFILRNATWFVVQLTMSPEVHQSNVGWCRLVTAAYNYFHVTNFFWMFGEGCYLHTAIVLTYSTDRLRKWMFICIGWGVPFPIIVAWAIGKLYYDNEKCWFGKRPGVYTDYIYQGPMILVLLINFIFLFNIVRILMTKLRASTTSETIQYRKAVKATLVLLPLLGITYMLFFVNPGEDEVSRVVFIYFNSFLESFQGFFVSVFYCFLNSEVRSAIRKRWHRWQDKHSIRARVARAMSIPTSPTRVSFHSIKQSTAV
Outline: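 Uses frozen stocks of CHO-K1 clone 2 cells overexpressing human CRF1R, plated at 4000 cells/well final, with cAMP measured by the same protocol as the TeloHAEC line. Full-activation control: 100 nM Sauvagine.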

[2] = target: T2, human CRF2a receptor (Homo sapiens, UniProt Q13324); assay: Activity at human CRF2a receptor, cAMP functional assay in TeloHEAC cells; type: cell-based; details: TeloHEAC cells stably expressing human CRF2a receptor, relative to urocortin 2 (100 nM = 100%)
T2 construct: expressed in transfected cells; host or cells: TeloHEAC cells
T2 sequence (Q13324 1-411): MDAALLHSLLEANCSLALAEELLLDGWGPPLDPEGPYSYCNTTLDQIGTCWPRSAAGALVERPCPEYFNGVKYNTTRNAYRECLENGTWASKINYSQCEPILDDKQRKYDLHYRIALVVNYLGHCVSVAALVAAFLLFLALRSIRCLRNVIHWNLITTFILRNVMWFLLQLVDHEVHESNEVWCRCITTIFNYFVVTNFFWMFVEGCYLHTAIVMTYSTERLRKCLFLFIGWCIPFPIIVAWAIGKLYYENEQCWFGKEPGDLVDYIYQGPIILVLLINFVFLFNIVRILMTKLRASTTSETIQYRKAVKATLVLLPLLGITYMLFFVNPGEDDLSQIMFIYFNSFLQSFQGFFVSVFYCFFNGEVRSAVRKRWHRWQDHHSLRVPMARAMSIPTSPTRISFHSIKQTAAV
Outline: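 TeloHEAC cells stably expressing human CRF2a (10000 cells/well) were treated with 16-point 1:2 compound dilutions in HBSS/20 mM HEPES with IBMX for 30 min at 37° C. cAMP was read by HTRF (665/620 nm ratio). EC50 was the concentration giving 50% activation, with 100 nM urocortin 2 set as 100%.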

| Emax (% I) [1] [% I] | EC50 [1] [nM] | EC50 [2] [nM] | Compound |
| --- | --- | --- | --- |
| 19 | > 250 | 0.11 | CC[C@H](C)[C@H](NC)C(=O)N[C@H](C(=O)N[C@@H](CC(C)C)C(=O)N[C@@H](CO)C(=O)N[C@@H](CC(C)C)C(=O)N[C@@H](CC(=O)O)C(=O)N[C@@H](C(=O)N1CCC[C@H]1C(=O)N[C@H](C(=O)NCC(=O)N[C@@H](CC(C)C)C(=O)N[C@@H](CCCCNC(=O)CC[C@H](NC(=O)CCCCCCCCCCCCCCCCC(=O)O)C(=O)O)C(=O)N[C@@H](CCCCN)C(=O)N[C@H](C(=O)N[C@@H](CC(C)C)C(=O)N[C@@H](CC(C)C)C(=O)N[C@@H](CCC(=O)O)C(=O)N[C@@H](CCC(N)=O)C(=O)N[C@@H](CCC(=O)O)C(=O)N[C@@H](CCCCN)C(=O)N[C@@H](CCC(N)=O)C(=O)N[C@@H](CCCCN)C(=O)N[C@@H](CCCCN)C(=O)N[C@@H](CCC(N)=O)C(=O)N[C@@H](CCCNC(=N)N)C(=O)N[C@@H](CCC(=O)O)C(=O)N[C@@H](CCC(N)=O)C(=O)N[C@@H](C)C(=O)N[C@@H](CCC(=O)O)C(=O)N[C@H](C(=O)N[C@@H](CC(N)=O)C(=O)NC(C)(C)C(=O)N[C@@H](CCC(N)=O)C(=O)N[C@H](C(=O)N[C@@H](CC(C)C)C(=O)N[C@@H](C)C(=O)N[C@@H](CCC(N)=O)C(=O)N[C@H](C(N)=O)C(C)C)[C@@H](C)CC)[C@@H](C)O)[C@@H](C)CC)[C@@H](C)CC)C(C)C)C(C)C [compound 192] (H-[NMeI]VLSLD[dV]PIGLK([γGlu-C18 diacid])KILLEQEKQKKQREQAETN[Aib]QILAQV-NH2) |
| 42 |  | 0.21 | CCCCC(=O)N[C@H](C(=O)N[C@@H](CC(C)C)C(=O)N[C@@H](CO)C(=O)N[C@@H](CC(C)C)C(=O)N[C@@H](CC(=O)O)C(=O)N[C@@H](C(=O)N1CCC[C@H]1C(=O)N[C@H](C(=O)NCC(=O)N[C@@H](CC(C)C)C(=O)N[C@@H](CCCCNC(=O)CC[C@H](NC(=O)CCCCCCCCCCCCCCCCC(=O)O)C(=O)O)C(=O)N[C@@H](CCCCN)C(=O)N[C@H](C(=O)N[C@@H](CC(C)C)C(=O)N[C@@H](CC(C)C)C(=O)N[C@@H](CCC(=O)O)C(=O)N[C@@H](CCC(N)=O)C(=O)N[C@@H](CCC(=O)O)C(=O)N[C@@H](CCCCN)C(=O)N[C@@H](CCC(N)=O)C(=O)N[C@@H](CCCCN)C(=O)N[C@@H](CCCCN)C(=O)N[C@@H](CCC(N)=O)C(=O)N[C@@H](CCCNC(=N)N)C(=O)N[C@@H](CCC(=O)O)C(=O)N[C@@H](CCC(N)=O)C(=O)N[C@@H](C)C(=O)N[C@@H](CCC(=O)O)C(=O)N[C@H](C(=O)N[C@@H](CC(N)=O)C(=O)NC(C)(C)C(=O)N[C@@H](CCC(N)=O)C(=O)N[C@H](C(=O)N[C@@H](CC(C)C)C(=O)N[C@@H](C)C(=O)N[C@@H](CCC(N)=O)C(=O)N[C@H](C(N)=O)C(C)C)[C@@H](C)CC)[C@@H](C)O)[C@@H](C)CC)[C@@H](C)CC)C(C)C)C(C)C [compound 195] (Pentanoyl-VLSLD[dV]PIGLK([γGlu-C18 diacid])KILLEQEKQKKQREQAETN[Aib]QILAQV-NH2) |
| 9 | > 250 | 2.2 | CC[C@H](C)[C@H](NC(C)=O)C(=O)N[C@H](C(=O)N[C@@H](CC(C)C)C(=O)N[C@@H](CO)C(=O)N[C@@H](CC(C)C)C(=O)N[C@@H](CC(=O)O)C(=O)N[C@@H](C(=O)N1CCC[C@H]1C(=O)N[C@H](C(=O)N[C@@H](CCCCN)C(=O)N[C@@H](CC(C)C)C(=O)N[C@@H](CCCCNC(=O)COCCOCCNC(=O)COCCOCCNC(=O)CC[C@H](NC(=O)CCCCCCCCCCCCCCCCC(=O)O)C(=O)O)C(=O)N[C@@H](CCCCN)C(=O)N[C@H](C(=O)N[C@@H](CC(C)C)C(=O)N[C@@H](CC(C)C)C(=O)N[C@@H](CCC(=O)O)C(=O)N[C@@H](CCC(N)=O)C(=O)N[C@@H](CCC(=O)O)C(=O)N[C@@H](CCCCN)C(=O)N[C@@H](CCC(N)=O)C(=O)N[C@@H](CCCCN)C(=O)NC(C)(C)C(=O)N[C@@H](CCC(N)=O)C(=O)N[C@@H](CCCNC(=N)N)C(=O)N[C@@H](CCC(=O)O)C(=O)N[C@@H](CCC(N)=O)C(=O)N[C@@H](C)C(=O)N[C@@H](CCC(=O)O)C(=O)N[C@H](C(=O)N[C@@H](CC(N)=O)C(=O)NC1(C(=O)N[C@@H](CCC(N)=O)C(=O)N[C@H](C(=O)N[C@@H](CC(C)C)C(=O)N[C@@H](C)C(=O)N[C@@H](CCC(N)=O)C(=O)N[C@H](C(N)=O)C(C)C)[C@@H](C)CC)CCNCC1)[C@@H](C)O)[C@@H](C)CC)[C@@H](C)CC)C(C)C)C(C)C [compound 196] (Ac-IVLSLD[dV]PIKLK([AEEA-AEEA-γGlu-C18 diacid])KILLEQEKQK[Aib]QREQAETN[Api]QILAQV-NH2) |
| 5 | > 250 | 1.28 | CC[C@H](C)[C@H](NC(C)=O)C(=O)N[C@H](C(=O)N[C@@H](CC(C)C)C(=O)N[C@@H](CO)C(=O)N[C@@H](CC(C)C)C(=O)N[C@@H](CC(=O)O)C(=O)N[C@@H](C(=O)N1CCC[C@H]1C(=O)N[C@H](C(=O)N[C@@H](CCCCN)C(=O)N[C@@H](CC(C)C)C(=O)N[C@@H](CCCCNC(=O)COCCOCCNC(=O)COCCOCCNC(=O)CC[C@H](NC(=O)CCCCCCCCCCCCCCCCC(=O)O)C(=O)O)C(=O)N[C@@H](CCCCN)C(=O)N[C@H](C(=O)N[C@@H](CC(C)C)C(=O)N[C@@H](CC(C)C)C(=O)N[C@@H](CCC(=O)O)C(=O)N[C@@H](CCC(N)=O)C(=O)N[C@@H](CCC(=O)O)C(=O)N[C@@H](CCCCN)C(=O)N[C@@H](CCC(N)=O)C(=O)N[C@@H](CCCCN)C(=O)NC(C)(C)C(=O)N[C@@H](CCC(N)=O)C(=O)N[C@@H](CCCNC(=N)N)C(=O)N[C@@H](CCC(=O)O)C(=O)N[C@@H](CCC(N)=O)C(=O)N[C@@H](C)C(=O)N[C@@H](CCC(=O)O)C(=O)N[C@H](C(=O)N[C@@H](CC(N)=O)C(=O)NC(C)(C)C(=O)N[C@@H](CCC(N)=O)C(=O)N[C@H](C(=O)N[C@@H](CC(C)C)C(=O)N[C@@H](C)C(=O)N[C@@H](CCC(N)=O)C(=O)N[C@H](C(N)=O)C(C)C)[C@@H](C)CC)[C@@H](C)O)[C@@H](C)CC)[C@@H](C)CC)C(C)C)C(C)C [compound 197] (Ac-IVLSLD[dV]PIKLK([AEEA-AEEA-γGlu-C18 diacid])KILLEQEKQK[Aib]QREQAETN[Aib]QILAQV-NH2) |
| 2 | > 250 | 0.71 | CC[C@H](C)[C@H](NC)C(=O)N[C@H](C(=O)N[C@@H](CC(C)C)C(=O)N[C@@H](CO)C(=O)N[C@@H](CC(C)C)C(=O)N[C@@H](CC(=O)O)C(=O)N[C@@H](C(=O)N1CCC[C@H]1C(=O)N[C@H](C(=O)N[C@@H](CCCCN)C(=O)N[C@@H](CC(C)C)C(=O)N[C@@H](CCCCNC(=O)COCCOCCNC(=O)COCCOCCNC(=O)CC[C@H](NC(=O)CCCCCCCCCCCCCCCCC(=O)O)C(=O)O)C(=O)N[C@@H](CCCCN)C(=O)N[C@H](C(=O)N[C@@H](CC(C)C)C(=O)N[C@@H](CC(C)C)C(=O)N[C@@H](CCC(=O)O)C(=O)N[C@@H](CCC(N)=O)C(=O)N[C@@H](CCC(=O)O)C(=O)N[C@@H](CCCCN)C(=O)N[C@@H](CCC(N)=O)C(=O)N[C@@H](CCCCN)C(=O)NC(C)(C)C(=O)N[C@@H](CCC(N)=O)C(=O)N[C@@H](CCCNC(=N)N)C(=O)N[C@@H](CCC(=O)O)C(=O)N[C@@H](CCC(N)=O)C(=O)N[C@@H](C)C(=O)N[C@@H](CCC(=O)O)C(=O)N[C@H](C(=O)N[C@@H](CC(N)=O)C(=O)NC(C)(C)C(=O)N[C@@H](CCC(N)=O)C(=O)N[C@H](C(=O)N[C@@H](CC(C)C)C(=O)N[C@@H](C)C(=O)N[C@@H](CCC(N)=O)C(=O)N[C@H](C(N)=O)C(C)C)[C@@H](C)CC)[C@@H](C)O)[C@@H](C)CC)[C@@H](C)CC)C(C)C)C(C)C [compound 200] (H-[NMeI]VLSLD[dV]PIKLK([AEEA-AEEA-γGlu-C18 diacid])KILLEQEKQK[Aib]QREQAETN[Aib]QILAQV-NH2) |
